Species: Rattus norvegicus
Experiment: DrugMatrix - Regimen: Daily Repeat
Format: toxicity, organism-based, Sprague-Dawley
Set-up: regimen Daily Repeat, gender Male, age 6-8 weeks
Conditions: in vivo, po, 0 mg/kg, route oral GAVAGE, dose level Control, vehicle .5 % CMC; for BASOPHIL / EOSINOPHIL / ERYTHROCYTE COUNT / HEMATOCRIT / HEMOGLOBIN / LEUKOCYTE COUNT / LYMPHOCYTE / MEAN CORPUSCULAR HEMOGLOBIN / MEAN CORPUSCULAR HEMOGLOBIN CONCENTRATION / MEAN CORPUSCULAR VOLUME / MONOCYTE / NEUTROPHIL / PLATELET COUNT: tissue Blood; for ALANINE AMINOTRANSFERASE / ALBUMIN / ALKALINE PHOSPHATASE / ASPARTATE AMINOTRANSFERASE / BLOOD UREA NITROGEN / CARBON DIOXIDE / CHLORIDE / CHOLESTEROL / CREATINE PHOSPHOKINASE / CREATININE / GLUCOSE / LACTATE DEHYDROGENASE / LIPASE / PHOSPHORUS / POTASSIUM / SODIUM / TOTAL BILIRUBIN / TOTAL PROTEIN / URIC ACID: tissue Plasma

## COc1ccc(C(=O)Nc2c(Cl)c[n+]([O-])cc2Cl)c2ccc(C(F)(F)F)nc12 [SCH-351591]
96 h, time 4 day
  BASOPHIL: 0.5%
  EOSINOPHIL: 1.85%
  ERYTHROCYTE COUNT: 6.99 x10E6/uL
  HEMATOCRIT: 43.82%
  HEMOGLOBIN: 13.87 G/DL
  LEUKOCYTE COUNT: 12.01 x10E3/uL
  LYMPHOCYTE: 82.07%
  MEAN CORPUSCULAR HEMOGLOBIN: 19.8 pg
  MEAN CORPUSCULAR HEMOGLOBIN CONCENTRATION: 31.63 G/DL
  MEAN CORPUSCULAR VOLUME: 62.7 fL
  MONOCYTE: 2.6%
  NEUTROPHIL: 12.38%
  PLATELET COUNT: 1155 x10E3/uL
  ALANINE AMINOTRANSFERASE: 31.67 u/L
  ALBUMIN: 4.12 G/DL
  ALKALINE PHOSPHATASE: 396 u/L
  ASPARTATE AMINOTRANSFERASE: 75.67 u/L
  BLOOD UREA NITROGEN: 17.5 mg/dL
  CARBON DIOXIDE: 28.83 mmol/L
  CHLORIDE: 103.83 MEQ/L
  CHOLESTEROL: 84.83 mg/dL
  CREATINE PHOSPHOKINASE: 597.17 u/L
  CREATININE: 0.3 mg/dL
  GLUCOSE: 161.5 mg/dL
  LACTATE DEHYDROGENASE: 138.67 u/L
  LIPASE: 11.5 u/L
  PHOSPHORUS: 11.58 mg/dL
  POTASSIUM: 6.87 MEQ/L
  SODIUM: 146.83 MEQ/L
  TOTAL BILIRUBIN: 0.38 mg/dL
  TOTAL PROTEIN: 6.33 G/DL
  URIC ACID: 1.37 mg/dL
[…], time 6 day
  BASOPHIL: 0.37%
  EOSINOPHIL: 0.38%
  ERYTHROCYTE COUNT: 6.89 x10E6/uL
  HEMATOCRIT: 47.38%
  HEMOGLOBIN: 14.8 G/DL
  LEUKOCYTE COUNT: 13.59 x10E3/uL
  LYMPHOCYTE: 80.27%
  MEAN CORPUSCULAR HEMOGLOBIN: 21.52 pg
  MEAN CORPUSCULAR HEMOGLOBIN CONCENTRATION: 31.22 G/DL
  MEAN CORPUSCULAR VOLUME: 68.83 fL
  MONOCYTE: 2.78%
  NEUTROPHIL: 15.65%
  PLATELET COUNT: 1330.17 x10E3/uL
  ALANINE AMINOTRANSFERASE: 36 u/L
  ALBUMIN: 4.03 G/DL
  ALKALINE PHOSPHATASE: 354.17 u/L
  ASPARTATE AMINOTRANSFERASE: 76.5 u/L
  BLOOD UREA NITROGEN: 19.33 mg/dL
  CARBON DIOXIDE: 27.83 mmol/L
  CHLORIDE: 105.5 MEQ/L
  CHOLESTEROL: 68.83 mg/dL
  CREATINE PHOSPHOKINASE: 383.83 u/L
  CREATININE: 0.35 mg/dL
  GLUCOSE: 165.83 mg/dL
  LACTATE DEHYDROGENASE: 155.17 u/L
  LIPASE: 9.83 u/L
  PHOSPHORUS: 12.4 mg/dL
  POTASSIUM: 6.9 MEQ/L
  SODIUM: 147.33 MEQ/L
  TOTAL BILIRUBIN: 0.52 mg/dL
  TOTAL PROTEIN: 6.42 G/DL
  URIC ACID: 1.6 mg/dL
[…], time 14 day
  BASOPHIL: 0.38%
  EOSINOPHIL: 0.6%
  ERYTHROCYTE COUNT: 7.78 x10E6/uL
  HEMATOCRIT: 48.3%
  HEMOGLOBIN: 15.42 G/DL
  LEUKOCYTE COUNT: 13.55 x10E3/uL
  LYMPHOCYTE: 81.18%
  MEAN CORPUSCULAR HEMOGLOBIN: 19.8 pg
  MEAN CORPUSCULAR HEMOGLOBIN CONCENTRATION: 31.92 G/DL
  MEAN CORPUSCULAR VOLUME: 62.08 fL
  MONOCYTE: 1.72%
  NEUTROPHIL: 15.17%
  PLATELET COUNT: 1083.83 x10E3/uL
  ALANINE AMINOTRANSFERASE: 36.83 u/L
  ALBUMIN: 4.13 G/DL
  ALKALINE PHOSPHATASE: 328.17 u/L
  ASPARTATE AMINOTRANSFERASE: 74.83 u/L
  BLOOD UREA NITROGEN: 18.67 mg/dL
  CARBON DIOXIDE: 29.33 mmol/L
  CHLORIDE: 105.17 MEQ/L
  CHOLESTEROL: 72 mg/dL
  CREATINE PHOSPHOKINASE: 217.67 u/L
  CREATININE: 0.45 mg/dL
  GLUCOSE: 151.17 mg/dL
  LACTATE DEHYDROGENASE: 133.17 u/L
  LIPASE: 14.5 u/L
  PHOSPHORUS: 11.55 mg/dL
  POTASSIUM: 6.77 MEQ/L
  SODIUM: 149.33 MEQ/L
  TOTAL BILIRUBIN: 0.37 mg/dL
  TOTAL PROTEIN: 6.62 G/DL
  URIC ACID: 1.57 mg/dL
